# Measurements from patent US20110178171A1, “COMPOUNDS FOR CANCER THERAPY” (China Medical University, priority 2010, published 2011).
# How the values were obtained:
# PSA = assay: RT-PCR analysis of PSA expression; assay type: cell-based; settings: human cancer cells, 0.5 μM to 2 μM, 24 h, dose-dependent (FIG. 3A)
# Experimental: Total RNA from LNCaP, PC3, 3T3 cells was isolated as described above. cDNA was synthesized by reverse transcription of 2 μg of total RNA using oligo(dT)12-18 and SuperScript II RNA reverse transcriptase (Invitrogen). The cDNA was then used as the template to amplify the corresponding DNA fragments by PCR using two sets of synthetic oligonucleotide primers. DNA amplification was performed by PCR with the Thermocycler 2400 (PerkinElmer Life and Analytical Sciences, Boston, Mass.) using the following parameters: 35 cycles of denaturing at 95° C. for 1 min, annealing at 60° C. for 1 min, and extension at 72° C. for 2 min. Primers used for the AR PCR amplifications are (F): 5′-ATGGTGAGCAGAGTGCCCTA-3′ (SEQ ID NO: 1) (R): 5′-GTGGTGCTGGAAGCCTCTCCT-3′ (SEQ ID NO: 2) PSA (F) 5′-GGTGACCAAGTTCATGCTGTG-3′ (SEQ ID NO: 3) (R) 5′-GTGTCCTTGATCCACTTCCG-3′ (SEQ ID NO: 4) products were separated on 2% agarose gels, stained with ethidium bromide, and visualized using the Fluor Chem imaging system (Alpha InnoTech, San Leandro, Calif.), and levels of glyceraldehyde-3-phosphate dehydrogenase were used as the control.
# RT-PCR was conducted to examine the effect of Z-K8 on several human cancer cells. Briefly, the cells were treated with Z-K8 (0.5 μM to 2 μM) or Luteolin (as a positive control) for 24 h. […]
# cleaved caspase-3 = assay: Immunohistochemical staining of xenograft tumors, cleaved caspase-3; assay type: in vivo; settings: mice treated with 30 mg/kg (FIG. 8A)
# Experimental: Mice xenograft tissue samples were fixed in 10% formalin and embedded in paraffin. After routine rehydration, antigen retrieval and blocking, the sections were incubated in the primary antibody at 4° C. overnight. The primary antibody was recognized by the biotinylated secondary antibody and visualized by vectastain avidin-biotin complex peroxidase system (ABC kit) as well as peroxidase substrate 3,3′-diaminobenzidine kit (DAB kit).
# Immunohistochemical staining was conducted using a cleaved caspase-3-specific antibody. […] Similar staining was carried our using an AR-specific antibody.
# LNCaP xenografts = assay: Antitumor activity in vivo, LNCaP xenograft; design: species or system mice
# Experimental: Xenograft mice as a model system to study cytotoxicity effect of isochaihulactone in vivo: the implantation of cancer cells (LNCaP) were carried out similarly to previous reports. Female congenital athymic BALB/c nude (nu/nu) mice were purchased from National Sciences Council (Taipei, Taiwan) and all procedures were performed in compliance with the standard operating procedures of the Laboratory Animal Center of China Medical University (Taichung, Taiwan). All experiments were carried out using 6-8-week old mice weighing 18-22 g. The animals were s.c. implanted with 1×10^7 cell sinto the back of mice. When the tumor reached 80-120 mm3 in volume, animals were divided randomly into control and test groups consisting of six mice per group (day 0). Daily s.c. administration of z-K8, dissolved in a vehicle of 20% Tween 80 in normal saline (v/v) was performed from days 0 to 4 far from the inoculated tumor sites (>1.5 cm). The control group was treated with vehicle only. The mice were weighed three times a week up to days 21-28 to monitor the effects and the same time the tumor volume was determined by measurement of the length (L) and width (W) of the tumor. The tumor volume at day n (TVn) was calculated as TV (mm3)=(L×W^2)/2. The relative tumor volume at day n (RTVn) versus day 0 was expressed according to the following formula: RTVn=TVn/TV0. Tumor regression (T/C(%)) in treated versus control mice was calculated using: T/C(%)=(mean RTV of treated group)/(mean RTV of control group)×100. Xenograft tumors as well as other vital organs of treated and control. The results are shown in Tables 6 and 7 and FIGS. 6 and 7.
# Assays were carried out to examine the inhibition of human xenografts growth in vivo by isochaihulactone. Briefly, LNCaP tumor-bearing mice were administered s.c. with vehicle control, 30 mg/kg E-K8, and Z-K8 respectively on days 0-4 for 5 days. The volumes of the tumors were measured. […] Scale bars, […]. Data represent means W S.D. of tumor volume at each time
# Assays were carried out to examine the inhibition of human xenografts growth in vivo by Z-K8. Again, LNCaP tumor-bearing mice were administered s.c. with vehicle control, Z-K8 15 mg/kg on days 0-4 for 5 days. The volumes of the tumors were measured. […] Scale bars, […]. Data represent means W S.D. of tumor volume at each time point.
# [1] = tested on: oral cancer cell line OECM-1; assay: MTT growth inhibition assay, OECM-1; assay type: cell-based; settings: OECM-1, oral squamous cell carcinoma
# Experimental: (§1) The results were determined by three independent experiments.
# (§2) Besides, the above assay was also conducted on gastric cancer cell line NCI-N87, liver cancer cell line HepG2 and J5, lung cancer cell line A549, and oral cancer cell line OECM-1.
# [2] = tested on: lung cancer cell line A549; assay: MTT growth inhibition assay, A549; assay type: cell-based, human; settings: A549, lung adenocarcinoma
# Experimental: as §1, §2
# [3] = 30 mg/kg s.c. days 0-4, day 1 after administration
# [4] = 30 mg/kg s.c. days 0-4, day 4 after administration
# [5] = 30 mg/kg s.c. days 0-4, day 7 after administration
# [6] = 30 mg/kg s.c. days 0-4, day 10 after administration
# [7] = 30 mg/kg s.c. days 0-4, day 13 after administration
# [8] = 30 mg/kg s.c. days 0-4, day 16 after administration
# [9] = 30 mg/kg s.c. days 0-4, day 19 after administration
compound,measurement,setting,value
"COc1cc(/C=C2\C(=O)OCC2Cc2ccc3c(c2)OCO3)cc(OC)c1OC (racemic) [Z-K8, Racemic (Z)-β-(3′,4′-Methylenedioxybenzyl)-α-(3′,4′,5′-trimethoxybenzylidene)-γ-butyrolactone]",PSA expression (RT-PCR),PSA,down regulated
same,expression of cleaved caspase-3 in tumors (IHC) versus control,cleaved caspase-3,increased more
same,Relative tumor volume,"LNCaP xenografts; 15 mg/kg s.c. days 0-4, day 1 after administration",1
same,Relative tumor volume,"LNCaP xenografts; 15 mg/kg s.c. days 0-4, day 4 after administration",1.59
same,Relative tumor volume,"LNCaP xenografts; 15 mg/kg s.c. days 0-4, day 7 after administration",1.91
same,Relative tumor volume,"LNCaP xenografts; 15 mg/kg s.c. days 0-4, day 10 after administration",1.94
same,Relative tumor volume,"LNCaP xenografts; 15 mg/kg s.c. days 0-4, day 13 after administration",2.13
same,Relative tumor volume,"LNCaP xenografts; 15 mg/kg s.c. days 0-4, day 16 after administration",1.79
same,Relative tumor volume,"LNCaP xenografts; 15 mg/kg s.c. days 0-4, day 19 after administration",2.00
same,Relative tumor volume,"LNCaP xenografts; 15 mg/kg s.c. days 0-4, day 21 after administration",2.23
same,Relative tumor volume,LNCaP xenografts; [3],1
same,Tumor growth volume (mm^3),LNCaP xenografts; [3],0 mm^3
same,Relative tumor volume,LNCaP xenografts; [4],1.11
same,Tumor growth volume (mm^3),LNCaP xenografts; [4],0 mm^3
same,Relative tumor volume,LNCaP xenografts; [5],1.12
same,Tumor growth volume (mm^3),LNCaP xenografts; [5],90 mm^3
same,Relative tumor volume,LNCaP xenografts; [6],1.20
same,Tumor growth volume (mm^3),LNCaP xenografts; [6],202.5 mm^3
same,Relative tumor volume,LNCaP xenografts; [7],1.23
same,Tumor growth volume (mm^3),LNCaP xenografts; [7],260 mm^3
same,Relative tumor volume,LNCaP xenografts; [8],1.47
same,Tumor growth volume (mm^3),LNCaP xenografts; [8],255 mm^3
same,Relative tumor volume,LNCaP xenografts; [9],1.23
same,Tumor growth volume (mm^3),LNCaP xenografts; [9],200 mm^3
same,Relative tumor volume,"LNCaP xenografts; 30 mg/kg s.c. days 0-4, day 21 after administration",1.85
same,Tumor growth volume (mm^3),"LNCaP xenografts; 30 mg/kg s.c. days 0-4, day 22 after administration",225 mm^3
same,Tumor growth volume (mm^3),"LNCaP xenografts; 30 mg/kg s.c. days 0-4, day 25 after administration",375 mm^3
same,Tumor growth volume (mm^3),"LNCaP xenografts; 30 mg/kg s.c. days 0-4, day 28 after administration",435 mm^3
same,Tumor growth volume (mm^3),"LNCaP xenografts; 30 mg/kg s.c. days 0-4, day 31 after administration",633.5 mm^3
same,"tumor growth inhibition, in words","LNCaP xenografts; LNCaP tumor-bearing mice, 30 mg/kg s.c. days 0-4 (FIG. 6)",better tumor growth inhibition than E-form K8
same,IC50,[1],1 µM
same,IC50,[2],9.8 µM
